Assay results published in patent US10123978B2, “Patch for treating dermatophytosis” (MEIJI SEIKA PHARMA CO., LTD., priority 2012, dated 2018).
Counter-ions that a name gives are not always drawn.

Columns and labels:
[1] = test system: Trichophyton mentagrophytes (T. mentagrophytes) ATCC18748; test: Antifungal activity test against dermatophytes (MIC); format: cell-based; conditions: 80% growth inhibiting concentration, RPMI1640/MOPS, 28° C., 3 days, WST8; for MIC: Trichophyton mentagrophytes, 72 h
Method: (§1) Measurement of the anti-trichophyton activity of the compound of the formula (I) comprised in the patch of the present invention was carried out by the following method. The compound to be evaluated was used by dissolving in dimethyl sulfoxide (DMSO). As a medium for the test, RPMI1640 medium containing 0.165M of 3-morpholinopropanesulfonic acid (MOPS) was used. As fungi to be tested, Trichophyton mentagrophytes (T. mentagrophytes) ATCC18748 or Trichophyton rubrum (T. rubrum) ATCC10218 was used. The testing fungal strain was apportioned to 100 μl with a concentration of 1×10^4 conidia/ml, mixed with a compound to be evaluated on a 96-well half area plate so that the DMSO concentration became 1%, and cultured at a cultivation temperature of 28° C. for 3 days (Trichophyton mentagrophytes) or 4 days (Trichophyton rubrum). Thereafter, 5 μl of Cell Counting Kit 8 (WST8) was added thereto, and absorbances at 450 nm and 595 nm were measured to use these as background values. Thereafter, these were cultivated at 28° C. for 5 hours (Trichophyton mentagrophytes) or overnight (Trichophyton rubrum) to cause a color, and absorbances at 450 nm and 595 nm were measured again. A growth inhibiting rate was calculated from the difference to the background values, and a 80% growth inhibiting concentration was made an MIC value (μg/ml).

[2] = test system: Trichophyton rubrum (T. rubrum) ATCC10218; test: as above; format: cell-based; conditions: 80% growth inhibiting concentration, RPMI1640/MOPS, 28° C., 4 days, WST8; for MIC: Trichophyton rubrum, 96 h
Method: as §1

Row | Compound | MIC (T. mentagrophytes) [1] | MIC (T. rubrum) [2] | MIC [1] [µg/mL] | MIC [2] [µg/mL]
1 | CCOC(=O)c1c(C)nn(-c2ccccc2O)c1C [compound 22] | C (16 to 32 μg/ml) | D (>32-64 μg/ml) | – | –
2 | Cc1cc(C(F)(F)F)nn1-c1ccccc1O [compound 5] | C (16 to 32 μg/ml) | D (>32-64 μg/ml) | – | –
3 | Cc1cc(C)n(-c2ccccc2O)n1 [compound 1] | B (2 to 8 μg/ml) | B (4-16 μg/ml) | – | –
4 | Cc1cc(C)n(-c2ccc(C(=O)O)cc2O)n1 [compound 37] | B (2 to 8 μg/ml) | B (4-16 μg/ml) | – | –
5 | Cc1nn(-c2ccc([N+](=O)[O-])cc2O)c(C)c1C [compound 32] | B (2 to 8 μg/ml) | B (4-16 μg/ml) | – | –
6 | Cc1nn(-c2ccc(N)cc2O)c(C)c1C [compound 34] | B (2 to 8 μg/ml) | B (4-16 μg/ml) | – | –
7 | CCC(C)(C)c1ccc(CC(C)CN2C[C@@H](C)O[C@@H](C)C2)cc1 (some centres unmarked) [Amorolfine hydrochloride, reference compound] | – | – | ≤ 1 | ≤ 2
8 | Cc1nn(-c2ccccc2O)c(C)c1Cl [compound 13] | A (≤1 μg/ml) | B (4-16 μg/ml) | – | –
9 | Cc1cc(C)n(-c2cc(Cl)ccc2O)n1 [compound 11] | C (16 to 32 μg/ml) | D (>32-64 μg/ml) | – | –
10 | Cc1cc(C)n(-c2c(O)cccc2O)n1 [compound 43] | E (Inhibited less than 50% with 32 μg/ml) | D (>32-64 μg/ml) | – | –
11 | Cc1cc(C)n(-c2ccc(C(=O)N(C)C)cc2O)n1 [compound 38] | C (16 to 32 μg/ml) | B (4-16 μg/ml) | – | –
12 | Cc1cc(C)n(-c2cccc(Cl)c2O)n1 [compound 12] | C (16 to 32 μg/ml) | E (>64 μg/ml) | – | –
13 | Cc1nn(-c2ccc(Cl)cc2O)c(C)c1C [compound 30] | A (≤1 μg/ml) | A (≤2 μg/ml) | – | –
14 | Cc1ccn(-c2ccccc2O)n1 [compound 7] | C (16 to 32 μg/ml) | E (>64 μg/ml) | – | –
15 | Cc1nn(-c2ccc(F)cc2O)c(C)c1Cl [compound 21] | A (≤1 μg/ml) | B (4-16 μg/ml) | – | –
16 | Cc1cc(C)n(-c2ccc(Cl)cc2O)n1 [compound 26] | A (≤1 μg/ml) | A (≤2 μg/ml) | – | –
17 | Cc1cc(C)n(-c2ccc(C(N)=O)cc2O)n1 [compound 39] | C (16 to 32 μg/ml) | C (16-32 μg/ml) | – | –
18 | Cc1nn(-c2cc(O)ccc2O)c(C)c1Cl [compound 19] | C (16 to 32 μg/ml) | C (16-32 μg/ml) | – | –
19 | Cc1cc(C)n(-c2ccc(O)cc2O)n1 [compound 33] | B (2 to 8 μg/ml) | A (≤2 μg/ml) | – | –
20 | Cc1nn(-c2ccccc2O)c(C)c1C [compound 9] | A (≤1 μg/ml) | A (≤2 μg/ml) | – | –
21 | Cc1cc(C)n(-c2c(C)cccc2O)n1 [compound 46] | E (Inhibited less than 50% with 32 μg/ml) | D (>32-64 μg/ml) | – | –

Row | Compound | MIC (T. mentagrophytes) [1] | MIC (T. rubrum) [2] | MIC [1] [µg/mL] | MIC [2] [µg/mL]
22 | Cc1cc(C)n(-c2cccc(O)c2O)n1 [compound 15] | C (16 to 32 μg/ml) | C (16-32 μg/ml) | – | –
23 | CCc1c(C)nn(-c2ccccc2O)c1C [compound 17] | A (≤1 μg/ml) | A (≤2 μg/ml) | – | –
24 | Cc1cc(C)n(-c2ccc(N)cc2O)n1 [compound 31] | B (2 to 8 μg/ml) | B (4-16 μg/ml) | – | –
25 | Cc1cc(C)n(-c2ccc(F)cc2O)n1 [compound 25] | B (2 to 8 μg/ml) | B (4-16 μg/ml) | – | –
26 | Cc1nn(-c2cc(F)ccc2O)c(C)c1C [compound 20] | C (16 to 32 μg/ml) | D (>32-64 μg/ml) | – | –
27 | CCCCc1c(C)nn(-c2ccccc2O)c1C [compound 24] | A (≤1 μg/ml) | C (16-32 μg/ml) | – | –
28 | Cc1cc(C)n(-c2cccc(C)c2O)n1 [compound 51] | E (Inhibited less than 50% with 32 μg/ml) | D (>32-64 μg/ml) | – | –
29 | Cc1cc(C)n(-c2ccc([N+](=O)[O-])cc2O)n1 [compound 28] | B (2 to 8 μg/ml) | C (16-32 μg/ml) | – | –
30 | Cc1cc(C)n(-c2c(N)cccc2O)n1 [compound 36] | E (Inhibited less than 50% with 32 μg/ml) | D (>32-64 μg/ml) | – | –
31 | CCc1cc(CC)n(-c2ccccc2O)n1 [compound 14] | B (2 to 8 μg/ml) | B (4-16 μg/ml) | – | –
32 | Cc1ccc(O)c(-n2nc(C)cc2C)c1 [compound 49] | E (Inhibited less than 50% with 32 μg/ml) | D (>32-64 μg/ml) | – | –
33 | Oc1ccccc1-n1nc(C(F)(F)F)cc1C(F)(F)F [compound 6] | C (16 to 32 μg/ml) | E (>64 μg/ml) | – | –
34 | Cc1cc(C)n(-c2cc(O)ccc2O)n1 [compound 16] | C (16 to 32 μg/ml) | E (>64 μg/ml) | – | –
35 | Cc1nn(-c2ccc(C(N)=O)cc2O)c(C)c1C [compound 41] | D (Inhibited 50% or more and less than 80% with 32 μg/ml) | D (>32-64 μg/ml) | – | –
36 | Cc1nn(-c2ccc(C(=O)O)cc2O)c(C)c1C [compound 40] | E (Inhibited less than 50% with 32 μg/ml) | D (>32-64 μg/ml) | – | –
37 | Cc1ccnn1-c1ccccc1O [compound 8] | C (16 to 32 μg/ml) | E (>64 μg/ml) | – | –
38 | COC(=O)c1ccc(-n2nc(C)cc2C)c(O)c1 [compound 35] | C (16 to 32 μg/ml) | C (16-32 μg/ml) | – | –
39 | COC(=O)CCc1c(C)nn(-c2ccccc2O)c1C [compound 23] | C (16 to 32 μg/ml) | D (>32-64 μg/ml) | – | –
40 | CN(C/C=C/C#CC(C)(C)C)Cc1cccc2ccccc12 [Terbinafine hydrochloride, reference compound] | – | – | ≤ 1 | ≤ 2
41 | Cc1nn(-c2ccc(F)cc2O)c(C)c1C [compound 18] | B (2 to 8 μg/ml) | B (4-16 μg/ml) | – | –
42 | CC(C)(C)c1cc(N)n(-c2ccccc2O)n1 [compound 10] | D (Inhibited 50% or more and less than 80% with 32 μg/ml) | E (>64 μg/ml) | – | –

Next, values leading:

Row | MIC (T. mentagrophytes) [1] | MIC (T. rubrum) [2] | MIC [1] [µg/mL] | MIC [2] [µg/mL] | Compound
43 | A (≤1 μg/ml) | A (≤2 μg/ml) | – | – | COc1ccc(-n2nc(C)cc2C)c(O)c1 [compound 45]
44 | B (2 to 8 μg/ml) | B (4-16 μg/ml) | – | – | CC(=O)Oc1ccc(-n2nc(C)cc2C)c(O)c1 [compound 57]
45 | C (16 to 32 μg/ml) | D (>32-64 μg/ml) | – | – | Cc1nn(-c2ccc(C(N)=O)cc2O)c(C)c1Cl [compound 42]
46 | A (≤1 μg/ml) | A (≤2 μg/ml) | – | – | Cc1ccc(-n2nc(C)cc2C)c(O)c1 [compound 44]
47 | A (≤1 μg/ml) | A (≤2 μg/ml) | – | – | Cc1nn(-c2ccc(Br)cc2O)c(C)c1Cl [compound 55]
48 | A (≤1 μg/ml) | A (≤2 μg/ml) | – | – | Cc1nn(-c2ccc(Br)cc2O)c(C)c1C [compound 56]
49 | B (2 to 8 μg/ml) | A (≤2 μg/ml) | – | – | CC(=O)Oc1ccc(-n2nc(C)c(Cl)c2C)c(O)c1 [compound 58]
50 | C (16 to 32 μg/ml) | C (16-32 μg/ml) | – | – | Cc1cc(C)n(-c2cc(Cl)c(C)cc2O)n1 [compound 61]
51 | B (2 to 8 μg/ml) | B (4-16 μg/ml) | – | – | CC(=O)Oc1ccc(-n2nc(C)c(C)c2C)c(O)c1 [compound 59]
52 | B (2 to 8 μg/ml) | B (4-16 μg/ml) | – | – | Cc1cc(C)n(-c2ccc(C(F)(F)F)cc2O)n1 [compound 50]
53 | A (≤1 μg/ml) | A (≤2 μg/ml) | – | – | Cc1cc(C)n(-c2ccc(Br)cc2O)n1 [compound 54]
54 | B (2 to 8 μg/ml) | B (4-16 μg/ml) | – | – | Cc1cc(C)n(-c2ccc(CO)cc2O)n1 [compound 47]
55 | A (≤1 μg/ml) | A (≤2 μg/ml) | – | – | CCc1ccc(-n2nc(C)cc2C)c(O)c1 [compound 52]
56 | A (≤1 μg/ml) | A (≤2 μg/ml) | – | – | Cc1nn(-c2ccc(O)cc2O)c(C)c1Cl [compound 63]
57 | B (2 to 8 μg/ml) | B (4-16 μg/ml) | – | – | CNc1ccc(-n2nc(C)cc2C)c(O)c1 [compound 48]
58 | B (2 to 8 μg/ml) | B (4-16 μg/ml) | – | – | Cc1nn(-c2ccccc2O)c(C)c1F [compound 53]
